According to EP3797781A1, “USE OF EC-7072 AND SYNERGIC COMPOSITIONS THEREOF IN TREATMENT OF CHRONIC LYMPHOCYTIC LEUKEMIA” (priority 2019, dated 2021):

Legend:
healthy B cells = assay: Viability of healthy B cells from healthy donors by DiOC6(3)/PI staining; format: cell-based, human; conditions: 200 nM, 24 hours; PBMCs from healthy donors (n = 20); Figure 1F
Method: (§1) Cell viability and apoptosis were evaluated by double-staining with the mitochondrial inner transmembrane potential (ΔΨm)-sensitive dye DiOC6(3) (3,3'-dihexyloxacarbocyanine iodide; Sigma-Aldrich) and the exclusion dye propidium iodide (PI; Immunostep), allowing identification of apoptotic [DiOC6(3)^low PI^-] and dead [PI^+] cells as per Proc. Natl. Acad. Sci. U.S.A. (2014) 111(8):3020-3025 and Methods Mol. Biol. (2016) 1419:1-16. Briefly, PBMCs were resuspended in culture medium containing 20 nM DiOC6(3) and incubated for 30 minutes at 37 °C. Then, PI (1 µg/mL) was added and cells were further incubated for 10 minutes at room temperature (RT). Cells were analyzed by flow cytometry considering DiOC6(3)^+PI^- cells as viable. In some experiments, apoptosis was evaluated by staining with Annexin V/PI. […]
The in vitro cytotoxic activity of EC-7072 against primary CLL cells was assessed by: • (i) incubating PBMCs isolated from patients with CLL (n = 13) following treatment with increasing concentrations of EC-7072 (0 - 400 nM) for 24 hours. Numbers of leukemia cells were evaluated by flow cytometry and normalized to their respective control (DMSO) condition for each individual patient to obtain percentage of leukemia cells (Figure 1A); • (ii) incubating PBMCs from patients with CLL (n = 10) with or without EC-7072 (100-400 nM) for 24 hours. […]

[1] = system: T cells isolated from patients with CLL; assay: T cell apoptosis by Annexin V/PI staining; format: cell-based, human; conditions: 200 nM, 24 hours; n = 3
Method: as §1
The induction of caspase-dependent apoptosis on primary CLL cells by EC-7072 was assessed by: • (i) incubating PBMCs isolated from patients with CLL (n = 6) following treatment with increasing concentrations of EC-7072 (0 - 400 nM) for 24 hours. Apoptosis of leukemia cells was evaluated by cytofluorometric assessment of Annexin V/PI staining to obtain percentages of apoptotic [Annexin V^+ PI^-] and dead [PI^+] cells (Figure 3A); • (ii) incubating PBMCs and T cells isolated from patients with CLL (n = 3) following treatment with EC-7072 (200 nM) for 24 hours. […]

CO[C@@H]([C@@H]1Cc2cc3cc(O[C@H]4C[C@@H](O[C@H]5C[C@@H](O)[C@H](O)[C@@H](C)O5)[C@H](O)[C@@H](C)O4)c(C)c(O)c3c(O)c2C(=O)[C@H]1O[C@H]1C[C@@H](O[C@H]2C[C@@H](O[C@H]3C[C@](C)(O)[C@H](O)[C@@H](C)O3)[C@@H](O)[C@@H](C)O2)[C@H](O)[C@@H](C)O1)[C@@H](O)C(C)=O [EC-7072, mithramycin SK]
viability of healthy B cells (healthy B cells): triggered death of normal B cells
T cell apoptosis (Annexin V/PI) [1]: no significant apoptosis
